The values that follow come from article PMC5159281 (Bioorganic & medicinal chemistry letters, 2016).

A value given as a limit tells only on which side of the number the result lay.

Data set [1] concerns P. falciparum blood stage. Conditions: result in words.
The subject of a further data set is CRL-8155 cells. Description: cells. Conditions: Homo sapiens, CRL8155, read-out: CRL8155 EC50.
A further data set relates to HepG2 cells. Description: cells. The following applies: Homo sapiens, HepG2, read-out: HepG2 EC50.
Another data set concerns the target PfCDPK1 (Plasmodium falciparum, UniProt P62344). The data set is described as follows: biochemical.
The target of a further data set is recombinant PfPKG (Plasmodium falciparum, UniProt Q8I719). Description: biochemical.
The target in another data set is recombinant PfCDPK4 (Plasmodium falciparum, UniProt Q8IBS5). The data set is described as follows: biochemical.
The target in the next data set is hERG (Homo sapiens, UniProt Q12809). Conditions: cited from earlier work.
The conditions of data set [2]: cited from earlier work.

Chain of PfCDPK1 (P62344 whole entry): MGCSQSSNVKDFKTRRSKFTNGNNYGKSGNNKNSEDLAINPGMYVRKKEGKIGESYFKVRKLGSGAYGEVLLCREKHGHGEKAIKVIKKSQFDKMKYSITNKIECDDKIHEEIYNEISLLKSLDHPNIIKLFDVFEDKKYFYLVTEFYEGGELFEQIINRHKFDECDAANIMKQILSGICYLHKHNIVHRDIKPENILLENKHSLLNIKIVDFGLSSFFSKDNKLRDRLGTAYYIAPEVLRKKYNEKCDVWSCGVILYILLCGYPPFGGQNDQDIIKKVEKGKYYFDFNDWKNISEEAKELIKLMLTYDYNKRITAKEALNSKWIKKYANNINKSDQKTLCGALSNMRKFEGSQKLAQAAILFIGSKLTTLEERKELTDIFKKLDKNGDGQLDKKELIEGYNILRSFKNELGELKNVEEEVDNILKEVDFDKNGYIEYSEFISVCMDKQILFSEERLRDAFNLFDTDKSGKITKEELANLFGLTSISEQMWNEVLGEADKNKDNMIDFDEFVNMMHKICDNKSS
Chain of hERG (Q12809 whole entry): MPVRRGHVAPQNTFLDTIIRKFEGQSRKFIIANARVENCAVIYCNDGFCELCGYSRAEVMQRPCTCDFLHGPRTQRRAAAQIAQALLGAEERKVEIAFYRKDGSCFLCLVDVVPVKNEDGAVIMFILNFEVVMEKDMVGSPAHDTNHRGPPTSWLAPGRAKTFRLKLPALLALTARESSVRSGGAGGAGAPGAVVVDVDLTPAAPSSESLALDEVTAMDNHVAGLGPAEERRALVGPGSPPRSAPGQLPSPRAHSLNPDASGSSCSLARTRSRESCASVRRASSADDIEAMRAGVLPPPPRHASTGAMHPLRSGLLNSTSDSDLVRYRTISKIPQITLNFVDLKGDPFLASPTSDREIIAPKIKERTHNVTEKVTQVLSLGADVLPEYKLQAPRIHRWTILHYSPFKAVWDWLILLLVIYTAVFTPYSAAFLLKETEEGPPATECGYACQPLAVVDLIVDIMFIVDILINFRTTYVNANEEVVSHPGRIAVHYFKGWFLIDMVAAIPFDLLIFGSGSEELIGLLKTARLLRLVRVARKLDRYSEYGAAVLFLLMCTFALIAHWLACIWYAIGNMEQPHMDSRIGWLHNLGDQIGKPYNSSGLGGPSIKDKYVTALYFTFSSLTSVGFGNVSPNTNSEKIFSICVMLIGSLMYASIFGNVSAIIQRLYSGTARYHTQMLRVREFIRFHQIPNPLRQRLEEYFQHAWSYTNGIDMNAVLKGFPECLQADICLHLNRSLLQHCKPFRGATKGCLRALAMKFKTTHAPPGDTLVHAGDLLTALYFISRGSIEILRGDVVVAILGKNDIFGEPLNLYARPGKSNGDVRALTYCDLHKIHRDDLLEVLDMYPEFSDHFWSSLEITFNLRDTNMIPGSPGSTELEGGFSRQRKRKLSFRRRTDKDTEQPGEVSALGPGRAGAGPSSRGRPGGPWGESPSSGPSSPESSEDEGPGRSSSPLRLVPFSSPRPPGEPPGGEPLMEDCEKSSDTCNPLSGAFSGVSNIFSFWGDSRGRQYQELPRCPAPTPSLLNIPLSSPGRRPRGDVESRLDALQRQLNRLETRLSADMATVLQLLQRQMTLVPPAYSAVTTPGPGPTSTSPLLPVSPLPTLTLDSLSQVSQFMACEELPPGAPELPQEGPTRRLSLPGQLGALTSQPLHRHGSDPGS
Chain of recombinant PfPKG (Q8I719 whole entry): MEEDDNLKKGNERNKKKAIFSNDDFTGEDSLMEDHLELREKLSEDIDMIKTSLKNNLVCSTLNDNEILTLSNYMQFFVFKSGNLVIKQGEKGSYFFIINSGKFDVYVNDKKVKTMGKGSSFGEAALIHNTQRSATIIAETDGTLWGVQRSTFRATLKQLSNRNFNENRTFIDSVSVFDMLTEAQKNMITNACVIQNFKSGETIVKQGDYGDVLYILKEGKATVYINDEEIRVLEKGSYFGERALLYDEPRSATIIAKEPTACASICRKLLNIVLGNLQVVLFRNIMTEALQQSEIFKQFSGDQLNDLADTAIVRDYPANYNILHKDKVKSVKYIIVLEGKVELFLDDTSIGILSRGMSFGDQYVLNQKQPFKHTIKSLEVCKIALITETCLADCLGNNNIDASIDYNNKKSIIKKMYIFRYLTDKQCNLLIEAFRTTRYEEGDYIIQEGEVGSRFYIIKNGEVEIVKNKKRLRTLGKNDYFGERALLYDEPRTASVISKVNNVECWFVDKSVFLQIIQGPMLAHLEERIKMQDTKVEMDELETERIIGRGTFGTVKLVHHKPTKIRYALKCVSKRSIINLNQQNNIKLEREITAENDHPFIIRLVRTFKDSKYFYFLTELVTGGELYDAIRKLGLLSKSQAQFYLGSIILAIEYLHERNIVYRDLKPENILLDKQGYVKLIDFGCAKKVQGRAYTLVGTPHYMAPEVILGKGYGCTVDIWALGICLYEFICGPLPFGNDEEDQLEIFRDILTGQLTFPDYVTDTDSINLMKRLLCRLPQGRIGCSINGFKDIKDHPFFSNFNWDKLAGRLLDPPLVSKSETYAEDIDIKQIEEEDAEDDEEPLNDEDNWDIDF
Chain of recombinant PfCDPK4 (Q8IBS5 whole entry): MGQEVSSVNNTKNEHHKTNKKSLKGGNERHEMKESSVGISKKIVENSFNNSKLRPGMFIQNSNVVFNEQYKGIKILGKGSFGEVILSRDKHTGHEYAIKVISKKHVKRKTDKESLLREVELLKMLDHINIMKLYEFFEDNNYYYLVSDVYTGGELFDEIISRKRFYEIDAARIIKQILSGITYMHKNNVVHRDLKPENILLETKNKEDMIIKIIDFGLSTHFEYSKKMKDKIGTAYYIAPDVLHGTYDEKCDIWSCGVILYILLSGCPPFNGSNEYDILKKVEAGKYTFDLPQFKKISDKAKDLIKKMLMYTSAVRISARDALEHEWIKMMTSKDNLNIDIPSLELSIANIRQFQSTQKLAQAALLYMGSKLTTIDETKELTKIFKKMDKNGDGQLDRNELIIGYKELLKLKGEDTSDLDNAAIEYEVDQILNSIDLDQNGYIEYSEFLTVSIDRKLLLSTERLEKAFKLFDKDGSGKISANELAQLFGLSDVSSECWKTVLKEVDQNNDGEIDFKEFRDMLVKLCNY

Take `CC(C)(C)n1nc(-c2ccc3cc(O)ccc3c2)c(C(N)=O)c1N` [Compound 2]: the anti-erythrocytic stage inhibition entry in data set [1] is “some observable anti-erythrocytic stage inhibition”. For the same compound, the EC50 in the data set on CRL-8155 cells and with HepG2 cells was above 30000 nM throughout.
On to `COc1ccc2cc(-c3nn(C(C)(C)C)c(N)c3C(N)=O)cnc2c1` [Compound 4], for which the 50% effective concentration (EC50) in the data set with CRL-8155 cells and with HepG2 cells was above 30000 nM each time.
Turning to `CCOc1ccc2cc(-c3nn(C(C)(C)C)c(N)c3C(N)=O)ccc2c1` [Compound 5], the concentration for half-maximal inhibition (IC50) at PfCDPK1 was found to be 287 nM; at recombinant PfPKG, 2370 nM.
As for `CCOc1ccc2cc(-c3nn(C(C)(C)C)c(N)c3C(N)=O)cnc2c1` [Compound 6], the anti-erythrocytic stage inhibition result in data set [1] is “some observable anti-erythrocytic stage inhibition”. Further, in the data set on HepG2 cells, the EC50 was above 30000 nM.
As to `CC(C)(C)n1nc(-c2cnc3cc(OC4CC4)ccc3c2)c(C(N)=O)c1N` [Compound 8], half-maximal inhibition at PfCDPK1 (IC50) was put at 225 nM.
On to `CCOc1ccc2cc(-c3nn(C(C)C)c(N)c3C(N)=O)cnc2c1` [Compound 14], for which the EC50 in the data set on CRL-8155 cells and in the data set on HepG2 cells was above 30000 nM throughout.
Turning to `CCOc1ccc2cc(-c3nn(CC(C)(C)CO)c(N)c3C(N)=O)cnc2c1` [Compound 17], the EC50 in the data set on CRL-8155 cells and in the data set with HepG2 cells was above 30000 nM throughout.
In the case of `CCOc1ccc2cc(-c3nn(C4CCOC4)c(N)c3C(N)=O)ccc2n1` (centres unmarked) [Compound 25], the results for the IC50 at recombinant PfCDPK4 and at PfCDPK1 were 103 nM and 468 nM, respectively.
Turning to `CCOc1ccc2cc(-c3nn(C4CCCCC4)c(N)c3C(N)=O)ccc2n1` [Compound 26], the anti-erythrocytic stage inhibition entry in data set [1] is reported as “some observable anti-erythrocytic stage inhibition”. The EC50 in the data set with CRL-8155 cells and with HepG2 cells was above 30000 nM throughout.
Compound `CC(C)n1nc(-c2ccc3nc(OC4CCC4)ccc3c2)c(C(N)=O)c1N` [Compound 27] registered a concentration for half-maximal inhibition (IC50) on PfCDPK1 of 159 nM.
For `CCOc1ccc2cc(-c3nn(CC4CCN(C)CC4)c4ncnc(N)c34)ccc2c1` [Compound 1294], the hERG inhibitory activity result at hERG is “hERG inhibitory activity at therapeutic concentrations”. Further, the toxicity result in data set [2] (initial mouse studies) was “low toxicity”. In addition, in data set [2] (mouse), the oral availability result is on record as “orally available”.
